Test results: BindingDB's records for patent US11912693 (Trevena, 2024)

Tests used:
[1] = biological target: T1, Sphingosine 1-phosphate receptor 1 (Homo sapiens, UniProt P21453); test: Beta-Arrestin2 Recruitment Assay
Procedure: Agonist-promoted β-arrestin2 recruitment to the sphingosine-1-phosphate 1 receptor was determined using the β-arrestin PathHunter ) Detection kit (DiscoverX Corporation, Cat #: 93-0001). […] In cells that stably express these fusion proteins, stimulation with a cognate agonist results in the interaction of 0-arrestin2 and the Prolink -tagged GPCR. This allows the complementation of the two β-galactosidase fragments and results in the formation of a functional enzyme with β-galactosidase activity. […] Following a 60 minute incubation at 37 C. and 5% CO2 in a humidified CO2 and temperature-controlled incubator, the components of the β-arrestin PathHunter Detection kit were added as per the manufacturer's instructions. After an hour incubation at room temperature, plates were analyzed by a BMG PheraStar microplate reader.

[2] = biological target: T1, Sphingosine 1-phosphate receptor 1; test: Detecting Inhibition of cAMP Production
Procedure: Agonist-promoted G-protein responses were determined by measuring changes in intracellular cAMP using the HTRF cAMP HiRange kit (CisBio, Cat #: 62AM6PEJ) based on time-resolved fluorescence resonance energy transfer (TR-FRET) technology. […] Following a 30-minute incubation at 37 C. and 5% CO2 in a humidified CO2 and temperature-controlled incubator, the components of the cAMP HiRange kit were added as per the manufacturer's instructions. After an hour incubation at room temperature, plates were analyzed by a BMG PheraStar microplate reader.

T1 sequence (P21453 whole entry, the tested form may be a part): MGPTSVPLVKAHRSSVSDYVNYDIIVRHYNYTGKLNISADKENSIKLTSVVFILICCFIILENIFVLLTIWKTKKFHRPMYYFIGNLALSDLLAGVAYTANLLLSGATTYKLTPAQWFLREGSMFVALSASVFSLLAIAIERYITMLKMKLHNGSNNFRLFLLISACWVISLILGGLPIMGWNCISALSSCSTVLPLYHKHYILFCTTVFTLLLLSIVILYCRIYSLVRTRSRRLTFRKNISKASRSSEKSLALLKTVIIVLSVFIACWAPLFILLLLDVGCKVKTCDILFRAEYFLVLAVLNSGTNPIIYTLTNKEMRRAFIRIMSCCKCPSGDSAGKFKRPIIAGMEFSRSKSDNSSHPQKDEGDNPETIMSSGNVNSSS

SMILES	EC50 [1] [µM]	EC50 [2] [µM]
Cc1cc(-c2noc(-c3ccc4c(c3)nnn4C3CCCC3)n2)ccn1 [US11912693, Compound 77]	> 10	> 0.316
CC(C)n1nnc2cc(-c3nc(-c4ccccc4Cl)co3)ccc21 [US11912693, Compound 163]	< 10	< 0.316
CC(C)N1NNc2cc(-c3nc(-c4sccc4Cl)co3)ccc21 [US11912693, Compound 463]	< 10	< 0.316
Cc1cc(-c2noc(-c3ccc4c(c3)NNN4C(C)C)n2)c(C)o1 [US11912693, Compound 490]	< 10	< 0.316
Cc1occc1-c1noc(-c2ccc3c(c2)NNN3C(C)C)n1 [US11912693, Compound 491]	< 10	< 0.316
Cc1cc(-c2noc(-c3ccc4c(c3)NNN4CC(C)(C)O)n2)c(C)o1 [US11912693, Compound 493]	> 10	> 0.316
CC(C)N1NNc2cc(-c3nc(-c4cccnc4Cl)no3)ccc21 [US11912693, Compound 499]	< 10	< 0.316
Cc1ccccc1-c1nc(-c2ccc3c(c2)NNN3CC(C)(C)O)no1 [US11912693, Compound 593]	< 10	< 0.316
CC(C)N1NNc2cc(-c3nc(-c4cn[nH]c4)no3)ccc21 [US11912693, Compound 646]	> 10	> 0.316
